From PMC3605724 (Molecular pharmaceutics, 2013)
“And” between values parts separate entries of the source, which are not always exact repeats. Identical values can stand only once. Counter-ions that a name gives are not always drawn. Like-named read-outs stand apart in the source and are kept apart here. Each block holds one compound with its values, some of them ahead of it.

How the values were obtained:
pKa = assay type: physicochemical
[1] = test system: rat intestine (proximal jejunum and distal ileum); assay: In situ single-pass intestinal perfusion; assay type: in vivo; conditions: physiological vs alternate pH, HDS, n = 6
[2] = Transport studies across Caco-2 cell monolayers; conditions: human
Caco-2 cell monolayers [3] = conditions: human, Caco-2, pH 7.5
rat small intestine = conditions: cited from earlier work
[4] = cited from earlier work
Caco-2 cell monolayers [5] = assay: Transport studies across Caco-2 cell monolayers
P-gp = conditions: cited from earlier work
Caco-2 cells = conditions: Caco-2, initial concentration based on HDS in 250 ml water; cited from earlier work

Isoelectric point (maximum unionized fraction) (pKa): 8.4 pH | Effect of change of pH (6.5 vs 7.5) on permeability in jejunum and ileum [1]: did not significantly affect | Papp at 120 min ([2]; Caco-2, pH 6.5): 5.96 ± 1.96 ×10⁻⁶ cm/s | Papp A→B at 120 min, 120 μg/ml ([2]; Caco-2, pH 7.5): 14.2 ± 1.5 ×10⁻⁶ cm/s | Papp B→A at 120 min, 120 μg/ml ([2]; Caco-2, pH 7.5): 46.7 ± 6.5 ×10⁻⁶ cm/s | Papp at 120 min ([2]; Caco-2, pH 7.5): 15.9 ± 2.2 ×10⁻⁶ cm/s | Increase in AP-BL direction transport caused by verapamil (Caco-2 cell monolayers [3]): 1.5 times
Structure (SMILES): CC(CCc1ccccc1)NCC(O)c1ccc(O)c(C(N)=O)c1 (stereo not drawn) [Labetalol]
Increase in apparent absorption rate constant of labetalol produced by verapamil (rat small intestine; highest labetalol concentration (100)): about 53% | Increase in apparent absorption rate constant of labetalol produced by verapamil (rat small intestine; lowest labetalol concentration (10)): about 84% | Time to reach maximum plasma concentration (tmax) ([4]; 100 mg oral dose, healthy volunteers): 48 min | Systemic BA (mean) ([4]; hypertensive subjects): 33% | Dose excreted in the urine as unchanged drug ([4]; man): up to 5% | Orally administered dose of radioactivity excreted by urine ([4]; within 24 h, two subjects, 200 mg oral dose): 55% and 60%

Effect of change of pH (6.5 vs 7.5) on permeability in jejunum and ileum [1]: did not significantly affect | Papp at 120 min ([2]; Caco-2, pH 6.5): 9.44 ± 3.44 ×10⁻⁶ cm/s | Papp at 120 min ([2]; Caco-2, pH 7.5): 23.2 ± 7.1 ×10⁻⁶ cm/s | Effect of verapamil on permeability in AP-BL and BL-AP directions (Caco-2 cell monolayers [5]; 0.1 mM verapamil, 0.1 times HDS (40 μg/ml), AP pH 7.5): no effect | Increase of ER under AP pH 6.5 (Caco-2 cell monolayers [5]; AP pH 6.5 compared with AP pH 7.5): 3.6 times
Structure (SMILES): COCCc1ccc(OCC(O)CNC(C)C)cc1 (stereo not drawn) [Metoprolol]
Interaction with P-gp (P-gp): does not interact with P-gp

Structure (SMILES): CC(CCc1ccccc1)NCC(O)c1ccc(O)c(C(N)=O)c1 (stereo not drawn) [labetalol hydrochloride]
Absorption from the GI tract ([4]; FDA product information of Trandate): completely absorbed

Structure (SMILES): CCn1cc(C(=O)O)c(=O)c2cc(F)c(N3CCNC(C)C3)c(F)c21 (stereo not drawn) [lemofloxacin, lomefloxacin]
Permeability classification based on comparison to labetalol (Caco-2 cells): high permeability
